The text below walks through data of US20110311455A1, “EN[…] GUIDED IMAGING AND […]” (THE REGENTS OF THE UNIVERSITY OF CALIFORNIA, priority 2008, published 2011).

This assay concerns normal human bronchial epithelial cells (LHS-9). Kind of assay: Cellular fluorescence imaging of cells incubated with OVG's or free ICG. The assay is classed as cell-based. Particulars: 2 hr post-incubation; ICG 10 μg/ml. How it is done: The cells were cultured for 24 hours in serum free culture medium supplied by the commercial vendor. […] An optical filter that allowed transmission of NIR light greater than 780 nm was used to capture the fluorescent signal onto a CCD camera.

SMILES strings stand for the structures.

Turning to `CC1(C)C(/C=C/C=C/C=C/C=C2\N(CCCCS(=O)(=O)O)c3ccc4ccccc4c3C2(C)C)=[N+](CCCCS(=O)(=O)[O-])c2ccc3ccccc3c21` [ICG, indocyanine green], the “localization in cells (confocal fluorescent images)” value is recorded as “remains mostly localized to the “rim” of the cells”.
